{"source": "ChEMBL document CHEMBL5143537", "about": "“Quinazoline-based hydroxamic acid derivatives as dual histone methylation and deacetylation inhibitors for potential anticancer agents” (Bioorg Med Chem, 2022)", "key": {"[1]": {"biological_target": "Histone deacetylase 1 (Homo sapiens, UniProt Q13547)", "sequence (Q13547 whole entry)": "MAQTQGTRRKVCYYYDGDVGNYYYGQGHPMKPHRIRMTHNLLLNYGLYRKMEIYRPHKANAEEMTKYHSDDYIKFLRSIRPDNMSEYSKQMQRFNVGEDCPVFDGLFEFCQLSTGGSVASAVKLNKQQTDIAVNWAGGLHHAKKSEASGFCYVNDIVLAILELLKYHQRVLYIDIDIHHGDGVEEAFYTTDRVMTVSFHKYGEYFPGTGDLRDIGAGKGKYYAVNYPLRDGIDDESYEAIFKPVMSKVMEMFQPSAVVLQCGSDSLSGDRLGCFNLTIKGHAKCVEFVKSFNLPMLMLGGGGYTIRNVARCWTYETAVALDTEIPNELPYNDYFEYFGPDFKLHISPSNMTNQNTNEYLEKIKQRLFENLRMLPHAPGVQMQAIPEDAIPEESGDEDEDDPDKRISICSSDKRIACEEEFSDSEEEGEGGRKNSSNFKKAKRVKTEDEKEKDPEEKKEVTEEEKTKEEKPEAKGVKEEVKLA", "experiment": "Inhibition of recombinant human HDAC1 expressed in baculovirus infection system using Ac-peptide-AMC as substrate preincubated for 15 mins followed by substrate addition and measured after 60 mins by fluorescence assay"}, "[2]": {"biological_target": "T1, Protein deacetylase HDAC6 (Homo sapiens, UniProt Q9UBN7)", "T1 sequence (Q9UBN7 whole entry)": "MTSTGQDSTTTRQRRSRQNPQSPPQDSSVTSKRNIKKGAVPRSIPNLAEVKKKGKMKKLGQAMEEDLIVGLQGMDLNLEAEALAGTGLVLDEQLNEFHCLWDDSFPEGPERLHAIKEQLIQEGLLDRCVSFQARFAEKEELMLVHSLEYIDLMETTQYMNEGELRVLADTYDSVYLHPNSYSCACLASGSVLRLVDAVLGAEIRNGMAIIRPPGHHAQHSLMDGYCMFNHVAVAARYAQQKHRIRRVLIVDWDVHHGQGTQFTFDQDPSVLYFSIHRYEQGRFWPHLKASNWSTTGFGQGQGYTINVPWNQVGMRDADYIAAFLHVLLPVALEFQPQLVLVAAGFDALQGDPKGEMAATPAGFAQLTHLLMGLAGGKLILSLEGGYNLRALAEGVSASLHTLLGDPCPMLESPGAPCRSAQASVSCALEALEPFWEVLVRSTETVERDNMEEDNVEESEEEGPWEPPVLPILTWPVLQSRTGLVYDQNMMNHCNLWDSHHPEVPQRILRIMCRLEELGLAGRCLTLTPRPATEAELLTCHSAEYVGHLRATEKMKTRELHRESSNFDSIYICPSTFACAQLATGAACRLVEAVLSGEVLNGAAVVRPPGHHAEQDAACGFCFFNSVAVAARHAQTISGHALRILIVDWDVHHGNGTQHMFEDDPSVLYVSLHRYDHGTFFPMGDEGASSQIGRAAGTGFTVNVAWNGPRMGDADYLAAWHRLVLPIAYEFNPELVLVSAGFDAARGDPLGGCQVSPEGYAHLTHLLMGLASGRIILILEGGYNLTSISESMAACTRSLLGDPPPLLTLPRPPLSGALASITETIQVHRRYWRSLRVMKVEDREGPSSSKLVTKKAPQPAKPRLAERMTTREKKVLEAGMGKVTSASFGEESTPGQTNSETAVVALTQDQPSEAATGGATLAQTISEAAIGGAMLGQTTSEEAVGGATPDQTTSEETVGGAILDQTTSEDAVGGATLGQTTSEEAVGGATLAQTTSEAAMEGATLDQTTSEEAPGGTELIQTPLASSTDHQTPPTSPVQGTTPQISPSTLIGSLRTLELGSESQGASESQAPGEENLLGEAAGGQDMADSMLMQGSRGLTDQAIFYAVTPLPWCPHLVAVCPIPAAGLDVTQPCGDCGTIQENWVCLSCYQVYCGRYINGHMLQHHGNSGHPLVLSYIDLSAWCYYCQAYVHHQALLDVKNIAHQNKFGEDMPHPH", "experiment": "Inhibition of recombinant HDAC6 (unknown origin) using Ac-peptide-AMC as substrate preincubated for 15 mins followed by substrate addition and measured after 60 mins by fluorescence assay"}, "[3]": {"tested_on": "HeLa", "experiment": "Antiproliferative activity against human HeLa cells measured after 72 hrs by MTT assay", "format": "functional, cell-based"}, "[4]": {"tested_on": "MDA-MB-231", "experiment": "Antiproliferative activity against human MDA-MB-231 cells measured after 72 hrs by MTT assay", "format": "functional, cell-based", "conditions": "MDA-MB-231, 72 h"}, "[5]": {"tested_on": "HepG2", "experiment": "Induction of apoptosis in human HepG2 cells assessed as viable cells at 1.25 uM measured after 48 hrs by Annexin V-FITC/propidium iodide staining based flow cytometry (reference value: 88.58%)", "format": "functional", "conditions": "read-out: Activity"}, "[6]": {"tested_on": "HepG2", "experiment": "Induction of apoptosis in human HepG2 cells assessed as necrotic cells at 2.5 uM measured after 48 hrs by Annexin V-FITC/propidium iodide staining based flow cytometry (reference value: 0%)", "format": "functional"}, "[7]": {"tested_on": "HepG2", "experiment": "Induction of apoptosis in human HepG2 cells assessed as early apoptotic cells at 5 uM measured after 48 hrs by Annexin V-FITC/propidium iodide staining based flow cytometry (reference value: 6.87%)", "format": "functional"}, "[8]": {"tested_on": "HepG2", "experiment": "Induction of apoptosis in human HepG2 cells assessed as viable cells at 10 uM measured after 48 hrs by Annexin V-FITC/propidium iodide staining based flow cytometry (reference value: 88.58%)", "format": "functional", "conditions": "read-out: Activity"}, "[9]": {"tested_on": "HepG2", "experiment": "Induction of apoptosis in human HepG2 cells assessed as viable cells at 20 uM measured after 48 hrs by Annexin V-FITC/propidium iodide staining based flow cytometry (reference value: 88.58%)", "format": "functional", "conditions": "read-out: Activity"}, "[10]": {"tested_on": "HepG2", "experiment": "Induction of apoptosis in human HepG2 cells assessed as necrotic cells at 20 uM measured after 48 hrs by Annexin V-FITC/propidium iodide staining based flow cytometry (reference value: 0%)", "format": "functional"}, "[11]": {"tested_on": "HepG2", "experiment": "Induction of apoptosis in human HepG2 cells measured after 48 hrs by Annexin V-FITC/propidium iodide staining based flow cytometry", "format": "functional, cell-based", "conditions": "dose 1.25-25 µM, DDE = dose-dependent effect"}, "[12]": {"tested_on": "HepG2", "experiment": "Induction of apoptosis in human HepG2 cells assessed as increase in cleaved caspase-9 expression at 1.25 to 20 uM measured after 48 hrs by Western blot analysis", "format": "functional, cell-based", "conditions": "dose 1.25-20 µM"}, "[13]": {"tested_on": "HepG2", "experiment": "Cell cycle arrest in human HepG2 cells assessed as accumulation at S phase at 5 uM measured after 48 hrs by propidium iodide staining based flow cytometry (reference value: 32.39%)", "format": "functional"}, "[14]": {"tested_on": "HepG2", "experiment": "Cell cycle arrest in human HepG2 cells assessed as accumulation at G0/G1 phase at 10 uM measured after 48 hrs by propidium iodide staining based flow cytometry (reference value: 55.24%)", "format": "functional"}, "[15]": {"tested_on": "HepG2", "experiment": "Cell cycle arrest in human HepG2 cells assessed as increase in p27 expression measured after 24 hrs by Western blot analysis", "format": "functional, cell-based", "conditions": "dose 1.25-20 µM, DDE = dose-dependent effect"}, "[16]": {"tested_on": "HepG2", "experiment": "Antiinvasive activity against human HepG2 cells at 20 uM measured after 24 hrs by trans-well assay", "format": "functional, cell-based", "conditions": "DDE = dose-dependent effect"}, "[17]": {"tested_on": "HepG2", "experiment": "Inhibition of colony formation in human HepG2 cells measured after 24 hrs", "format": "functional, cell-based", "conditions": "dose 1.25-20 µM, DDE = dose-dependent effect"}, "[18]": {"experiment": "Intrinsic clearance in rat liver microsomes at 1 uM by LC-MS/MS analysis", "format": "ADME, Microsome", "conditions": "read-out: CLH"}}, "note": "Active and inactive are the calls of the source. The calls are words filed in the database; no cut-off is given here.", "data": [{"compound": "COc1cc2nc(N3CCN(CCCCCC(=O)NO)CC3)nc(NC3CCN(Cc4ccccc4)CC3)c2cc1OC", "values": [{"measurement": "IC50", "setting": "[1]", "value": 0.089, "unit": "µM"}, {"measurement": "IC50", "setting": "[2]", "value": 0.013, "unit": "µM"}, {"measurement": "IC50", "setting": "[3]", "value": 3.34, "unit": "µM"}, {"measurement": "IC50", "setting": "[4]", "value": 9.3, "unit": "µM"}, {"measurement": "viability at 1.25 µM", "setting": "[5]", "value": 88.5, "unit": "%"}, {"measurement": "Activity", "setting": "[6]", "value": 0, "unit": "%"}, {"measurement": "Activity", "setting": "[7]", "value": 8.59, "unit": "%"}, {"measurement": "viability at 10 µM", "setting": "[8]", "value": 77.8, "unit": "%"}, {"measurement": "viability at 20 µM", "setting": "[9]", "value": 33.1, "unit": "%"}, {"measurement": "Activity", "setting": "[10]", "value": 0, "unit": "%"}, {"measurement": "Activity", "setting": "[11]", "value": "Dde"}, {"measurement": "Activity", "setting": "[12]", "value": "Active"}, {"measurement": "Activity", "setting": "[13]", "value": 28.81, "unit": "%"}, {"measurement": "Activity", "setting": "[14]", "value": 59.81, "unit": "%"}, {"measurement": "Activity", "setting": "[15]", "value": "Dde"}, {"measurement": "Activity", "setting": "[16]", "value": "Dde"}, {"measurement": "inhibition", "setting": "[17]", "value": "Dde"}, {"measurement": "CLint scaled at 1 µM", "setting": "[18]", "value": 155, "unit": "mL/min/kg"}]}]}
